{"source": "patent US20060009452A1", "about": "“Therapeutic targeting of PARC/CCL18 and its signaling in pulmonary fibrosis” (priority 2004, published 2006)", "key": {"[1]": {"test_system": "α2(I) collagen mRNA", "assay": "Real-time PCR for α2(I) collagen mRNA relative to 18S rRNA", "format": "cell-based, human", "conditions": "10 μg/ml actinomycin D before stimulation with PARC"}, "[2]": {"test_system": "lung fibroblasts", "assay": "Collagen production, metabolic labeling with 14C-proline, PAGE and autoradiography", "format": "cell-based, human", "conditions": "for effect on PARC activated collagen production: LF2 lung fibroblasts, 14C-proline", "experimental": "Collagen Production Assays. Production of collagen was assessed using metabolic labeling with ^14C-proline and Western blotting with anti-collagen type I antibody. For metabolic labeling of collagen, fibroblasts were plated at 2×10^5 cells/well in 6-well plates (Costar, Cambridge, Mass.), in duplicates, incubated overnight in 3 ml/well of high serum medium, and then for 24 h in low-serum medium. After that, the culture medium was replaced with 1 ml/well of fresh low serum medium with or without added test substances and containing ^14C-proline at 1 μCi/ml (Amersham Pharmacia Biotech). After incubation for the desired periods of time, the cell culture supernatants were collected, rapidly frozen in liquid nitrogen and freeze-dried at −70° C. The pellets were dissolved in 100 μl of reducing Laemmli buffer per 1 ml of the cell culture supernatant, and the samples were electrophoretically separated in 7.5% acrylamide gels. Alternatively, samples were concentrated 10-fold by filter centrifugation on 30K Ultrafree-MC filters (Millipore, Bedford, Mass.). Fluorographic images were developed using EN[3H]ANCE autoradiography enhancer (NEN, Boston, Mass.). Gel images were acquired using Storm densitometer (Molecular Dynamics, Sunnyvale, Calif.), and the densities of the bands were analyzed with ImageQuant software (Molecular Dynamics). Dependence of collagen production by fibroblast cultures on the dose of PARC and duration of stimulation were evaluated using one-way ANOVA with post hoc testing.\nThe identity of collagen bands was confirmed by sensitivity to pepsin and collagenase (both from Sigma) digestion. For pepsin digestion, 2 μl of 1 Macetic acid were added to 40 μl of concentrated fibroblast culture supernatant, followed by 1 μl of pepsin stock, to achieve final concentration of pepsin as indicated in the text. After 15 min of digestion at room temperature, reaction was stopped with 4 μl of 1 M Tris base and 40 μl of reducing Laemmli buffer. For collagenase digestion, 1 μl of 4 U/ml bacterial collagenase and 1 μl of protease inhibitor cocktail (Sigma) were added to 40 μl of sample and digestion performed at room temperature for 30 min. The bacterial collagenase was highly purified and had minimal clostripain and neutral protease activity, as tested by the manufacturer, according to the product information sheet.\nTo test effects of rhPARC on collagen protein production by lung and dermal fibroblast cell lines, fibroblast cultures were incubated for 48 h with or without 30 ng/ml and 300 ng/ml rhPARC in the low-serum cell culture medium containing 14Cproline for metabolic labeling of collagen. Fibroblast culture supernatants contained two 14C-proline containing bands in gel electrophoresis under reducing conditions (FIGS. 13A and 13B). Digestion with chromatographically pure bacterial collagenase in the presence of protease inhibitors eliminated the bands completely (FIG. 13A). To confirm the identity of these bands, we conducted Western blotting experiments in reducing conditions of fibroblast culture supernatants using an anti-collagen type I antibody, that recognizes α1(I) collagen but not other collagen chains. Digestion with pepsin caused expected decrease in the apparent molecular weight of the immunoreactive collagen from ˜175 kD to ˜125 kD (FIG. 13C)."}, "[3]": {"test_system": "ERK1/2", "assay": "Immunoblotting for phosphorylation of ERK1/2", "format": "cell-based, human", "conditions": "LF1, rhPARC 15 min, toxin 10 ng/ml"}, "[4]": {"test_system": "lung fibroblasts", "assay": "Western blotting of fibroblast culture supernatants for collagen type I / α1(I)", "format": "cell-based, human", "conditions": "lung fibroblast cultures, 48 h; for effect on PARC-stimulated collagen production: inhibitor plus PARC; for effect on TGF-β-stimulated collagen production: inhibitor plus TGF-β", "experimental": "Collagen Production Assays. Collagen was quantified as described elsewhere (Atamas S P et al.). Briefly, fibroblasts were cultured with β-aminopropionitrile (Sigma) to prevent collagen cross-linking, and Western blotting assays for collagen were performed using rabbit affinity purified anti-collagen type I antibody (Rockland, Gilbertsville, Pa.). Before electrophoresis, samples were reduced and denatured by boiling in Laemmli buffer containing β-mercaptoethanol. Human purified collagen type I (Southern Biotech, Birmingham, Ala.) was used as a positive control in these assays. The identity of collagen bands was confirmed by sensitivity to pepsin and collagenase (both from Sigma) digestion, as described (Atamas S P et al.). Under these conditions, pro-collagen appears as a single or double band around 175 kDa (Gaidarova S et al., Stefanovic B et al.). Images were collected using a Storm densitometer and band densities analyzed with ImageQuant software (Molecular Dynamics, Sunnyvale, Calif.).\nWestern blotting assays for collagen were performed using rabbit affinity purified anti-collagen type I antibody (Rockland, Gilbertsville, Pa.). Before electrophoresis, samples were reduced and denatured by boiling in Laemmli buffer containing β-mercaptoethanol. Human purified collagen type I (Southern Biotech, Birmingham, Ala.) was used as a positive control in these assays.\nCollagen was quantified by Western blotting and the identity of collagen bands was confirmed by sensitivity to pepsin and collagenase digestion as described elsewhere in Atamas et al. (Am. J. Respir. Cell. Mol., 29:743-749 (2003)). In these assays, pro-collagen appears as a single or double band with a molecular weight of approximately 175 kDa (4,27,28)."}, "[5]": {"target": "Autocrine (active) TGF-β secreted by human primary lung fibroblast cultures (human)", "assay": "cell-based or functional assay"}, "[6]": {"test_system": "fibroblasts", "conditions": "reported for MCP-1; cited from earlier work"}, "[7]": {"test_system": "Smad3", "assay": "Smad3 immunoprecipitation and phosphorylation Western blot", "format": "cell-based, human", "conditions": "fibroblasts activated with cytokine", "experimental": "To determine if PARC stimulated phosphorylation of Sp1 and Smad3, these factors were immunoprecipitated from lysates of fibroblasts that had been activated with recombinant human PARC for up to 24 hours, and the levels of their phosphorylation were tested in Western blotting assays using anti-phosphoserine and anti-phospho-Smad2/3 antibodies. Equal loading was controlled by stripping the membranes and re-developing them with anti-Sp1, anti-Smad3 and anti-Smad2/3 antibodies (FIG. 17).\nPreparation of fibroblast lysates, immunoprecipitation of Sp1 and Smad2/3, normalization of protein concentration in the samples with BioRad assays, electrophoretic separation, Western blotting, membrane stripping and re-development with different antibodies were performed as described in Atamas et al. (Am. J. Respir. Cell. Mol., 29:743-749 (2003); J. Immunol. 168: 1139-1145 (2002); and Arthritis Rheum., 42:1168-1178 (1999)), which are hereby incorporated by reference. Rabbit antibodies for total Smad2/3 and Sp1 were from Upstate (Waltham, Masss.). Antiphospho-Smad2/3 antibody and goat antibody for total Smad3 were from Santa Cruz Biotechnology (Santa Cruz, Calif.), as was anti-gp130 antibody used to confirm equal loading of the samples. Antiphosphoserine antibody was from Biomol (Plymouth Meeting, Pa.)."}, "[8]": {"conditions": "listed as Recombinant latency-associated peptide"}}, "note": "“Also recorded” adds a separate entry of the source. *1 amine or outer side, *2 acyl side, *3 side chain or, on linkers, in order; H or OH if unused. Where a SMILES comes first, the peptide text is derived from it. Bridges are numbered along the chain shown (N, C = ends). Roman numbers before positions name the chains, in order. [ ]: non-standard residue; d: D form. Actinocin(9to1) = Cc1c2oc3c(C)ccc(C(=O)[*:1])c3nc-2c(C(=O)[*:2])c(N)c1=O; NMeV = CN[C@H](C(=O)O)C(C)C; Sar = CNCC(=O)O"}
{"compound": "Cc1c2oc3c(C)ccc(C(=O)N[C@@H]4C(=O)N[C@H](C(C)C)C(=O)N5CCC[C@H]5C(=O)N(C)CC(=O)N(C)[C@@H](C(C)C)C(=O)O[C@@H]4C)c3nc-2c(C(=O)N[C@@H]2C(=O)N[C@H](C(C)C)C(=O)N3CCC[C@H]3C(=O)N(C)CC(=O)N(C)[C@@H](C(C)C)C(=O)O[C@@H]2C)c(N)c1=O", "note": "[actinomycin D, Actinomycin D, reference compound] (I: T[dV]P[Sar][NMeV] / II: T[dV]P[Sar][NMeV]; ester I:1-I:C, II:1-II:C; linker I:N-II:N via Actinocin(9to1))", "values": [{"measurement": "effect on PARC-induced increase in collagen mRNA", "setting": "[1]", "value": "completely abrogated the increase in collagen mRNA"}]}
{"compound": "COc1cccc(-c2cc(=O)c3ccccc3o2)c1N", "note": "[PD98059, reference compound]", "values": [{"measurement": "effect on PARC activated collagen production", "setting": "[2]", "value": "inhibited PARC activated collagen production"}]}
{"compound": "rhIL-4: recombinant human interleukin 4 purchased from R&D Systems", "values": [{"measurement": "combined density of procollagen bands, fold higher than non-stimulated control", "setting": "[2]; LF2 cells, 10 ng/ml rhIL-4, 48 h", "value": 2.9, "unit": "fold"}]}
{"compound": "Bordetella PT [reference compound]", "values": [{"measurement": "effect on PARC-stimulated ERK phosphorylation", "setting": "[3]", "value": "inhibited phosphorylation of ERK; also recorded: block PARC-stimulated ERK phosphorylation"}]}
{"compound": "Aprotinin [reference compound]", "values": [{"measurement": "effect on PARC-stimulated collagen production", "setting": "[4]", "value": "failed to inhibit the effect of PARC"}, {"measurement": "effect on TGF-β-stimulated collagen production", "setting": "[4]", "value": "had no effect on collagen production"}]}
{"compound": "Neutralizing anti-pan-TGF-β antibody, monoclonal mouse IgG1 clone 1D11 (R&D Systems)", "values": [{"measurement": "mink lung epithelial cell proliferation (thymidine incorporation); antibody concentration that abrogates the inhibition", "setting": "[5]", "value": 1, "unit": "µg/mL"}]}
{"compound": "MCP-1: CC chemokine known to induce collagen production in pulmonary fibroblasts through autocrine TGF-β", "values": [{"measurement": "concentration stimulating detectable collagen production", "setting": "[6]", "value": "100 to 400", "unit": "ng/mL"}]}
{"compound": "C[S+]([O-])c1ccc(-c2nc(-c3ccncc3)c(-c3ccc(F)cc3)[nH]2)cc1", "note": "(stereo not drawn) [SB203580, reference compound]", "values": [{"measurement": "effect on PARC activated collagen production", "setting": "[2]", "value": "had no effect"}]}
{"compound": "rhLAP: Latency-associated peptide (R&D Systems) used for TGF-β neutralization", "values": [{"measurement": "effect on PARC-stimulated collagen production", "setting": "[4]; [8]", "value": "failed to block the effect of PARC"}, {"measurement": "effect on TGF-β-stimulated collagen production", "setting": "[4]", "value": "inhibited stimulating effect of TGF-β"}, {"measurement": "effect on TGF-β-stimulated collagen production", "setting": "[4]; listed as Recombinant human LAP", "value": "inhibited stimulating effect of TGF-β"}, {"measurement": "effect on TGF-β-stimulated collagen production", "setting": "[4]; [8]", "value": "inhibited the effect of TGF-β"}]}
{"compound": "rhTGF-β1: Recombinant human TGF-β1 from R&D Systems, positive control for fibroblast stimulation", "values": [{"measurement": "phosphorylation of immunoprecipitated Smad3", "setting": "[7]", "value": "increased phosphorylation of Smad3"}]}
{"compound": "NC(=O)c1ccc(-c2nc(-c3ccc4c(c3)OCO4)c(-c3ccccn3)[nH]2)cc1", "note": "[SB431542, reference compound]", "values": [{"measurement": "effect on TGF-β-stimulated collagen production", "setting": "[4]", "value": "blocked TGF-β-stimulated; also recorded: abrogated TGF-β-stimulated"}]}
